Assay results from ChEMBL document CHEMBL4507317, “Data for DCP probe BAY-899” (2021).

Key:
[1] = molecular target: 1-phosphatidylinositol 3-phosphate 5-kinase (Homo sapiens) (UniProt Q9Y2I7); conditions: Compound concentration 1000.0 nM
[2] = molecular target: Phosphorylase b kinase regulatory subunit alpha, liver isoform (Homo sapiens) (UniProt P46019); conditions: Compound concentration 1000.0 nM
[3] = molecular target: Phosphorylase b kinase gamma catalytic chain, skeletal muscle/heart isoform (Homo sapiens) (UniProt Q16816); conditions: Compound concentration 1000.0 nM
[4] = molecular target: Serine/threonine-protein kinase/endoribonuclease IRE1 (Homo sapiens) (UniProt O75460); conditions: Compound concentration 1000.0 nM
[5] = molecular target: Sodium-dependent noradrenaline transporter (Homo sapiens) (UniProt P23975); conditions: Compound concentration 10.0 uM
[6] = molecular target: Serine/threonine-protein kinase OSR1 (Homo sapiens) (UniProt O95747); conditions: Compound concentration 1000.0 nM
[7] = molecular target: Serine/threonine-protein kinase 17A (Homo sapiens) (UniProt Q9UEE5); conditions: Compound concentration 1000.0 nM
[8] = molecular target: Receptor-interacting serine/threonine-protein kinase 2 (Homo sapiens) (UniProt O43353); conditions: Compound concentration 1000.0 nM
[9] = molecular target: Bone morphogenetic protein receptor type-1A (Homo sapiens) (UniProt P36894); conditions: Compound concentration 1000.0 nM
[10] = molecular target: Interferon-induced, double-stranded RNA-activated protein kinase (Homo sapiens) (UniProt P19525); conditions: Compound concentration 1000.0 nM
[11] = test system: Epidermal growth factor receptor (Homo sapiens), P00533 [L861Q]; conditions: Compound concentration 1000.0 nM
[12] = molecular target: Glycogen synthase kinase-3 alpha (Homo sapiens) (UniProt P49840); conditions: Compound concentration 1000.0 nM
[13] = molecular target: Tyrosine-protein kinase Fes/Fps (Homo sapiens) (UniProt P07332); conditions: Compound concentration 1000.0 nM
[14] = molecular target: Transient receptor potential cation channel subfamily M member 6 (Homo sapiens) (UniProt Q9BX84); conditions: Compound concentration 1000.0 nM
[15] = molecular target: Cyclin-dependent kinase-like 2 (Homo sapiens) (UniProt Q92772); conditions: Compound concentration 1000.0 nM
[16] = test system: Epidermal growth factor receptor (Homo sapiens), P00533 [UNDEFINED MUTATION]; conditions: Compound concentration 1000.0 nM
[17] = molecular target: Ephrin type-A receptor 3 (Homo sapiens) (UniProt P29320); conditions: Compound concentration 1000.0 nM
[18] = molecular target: TRAF2 and NCK-interacting protein kinase (Homo sapiens) (UniProt Q9UKE5); conditions: Compound concentration 1000.0 nM
[19] = molecular target: Mitogen-activated protein kinase 6 (Homo sapiens) (UniProt Q16659); conditions: Compound concentration 1000.0 nM
[20] = molecular target: Phosphatidylinositol 3-kinase catalytic subunit type 3 (Homo sapiens) (UniProt Q8NEB9); conditions: Compound concentration 1000.0 nM
[21] = molecular target: Serine/threonine-protein kinase MAK (Homo sapiens) (UniProt P20794); conditions: Compound concentration 1000.0 nM
[22] = test system: Epidermal growth factor receptor (Homo sapiens), P00533 [G719S]; conditions: Compound concentration 1000.0 nM
[23] = molecular target: cGMP-dependent protein kinase 2 (Homo sapiens) (UniProt Q13237); conditions: Compound concentration 1000.0 nM
[24] = molecular target: T1, 5-hydroxytryptamine receptor 1A (Homo sapiens) (UniProt P08908); conditions: Compound concentration 10.0 uM
T1 sequence (whole entry): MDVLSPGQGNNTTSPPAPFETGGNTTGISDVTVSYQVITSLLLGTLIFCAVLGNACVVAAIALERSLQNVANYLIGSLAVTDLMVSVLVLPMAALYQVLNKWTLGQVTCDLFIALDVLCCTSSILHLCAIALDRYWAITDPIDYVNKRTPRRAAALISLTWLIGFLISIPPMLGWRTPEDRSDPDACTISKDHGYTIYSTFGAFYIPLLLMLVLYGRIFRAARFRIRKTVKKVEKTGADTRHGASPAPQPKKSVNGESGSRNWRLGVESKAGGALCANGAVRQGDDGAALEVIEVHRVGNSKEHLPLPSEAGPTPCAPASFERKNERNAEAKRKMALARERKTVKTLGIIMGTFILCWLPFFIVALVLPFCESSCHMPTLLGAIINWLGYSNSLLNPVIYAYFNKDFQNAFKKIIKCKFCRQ

[25] = test system: Receptor-type tyrosine-protein kinase FLT3 (Homo sapiens), P36888 [D835V]; conditions: Compound concentration 1000.0 nM
[26] = molecular target: Platelet-derived growth factor receptor beta (Homo sapiens) (UniProt P09619); conditions: Compound concentration 1000.0 nM
[27] = molecular target: Serine/threonine-protein kinase Nek3 (Homo sapiens) (UniProt P51956); conditions: Compound concentration 1000.0 nM
[28] = molecular target: Angiopoietin-1 receptor (Homo sapiens) (UniProt Q02763); conditions: Compound concentration 1000.0 nM
[29] = molecular target: Non-receptor tyrosine-protein kinase TNK1 (Homo sapiens) (UniProt Q13470); conditions: Compound concentration 1000.0 nM
[30] = molecular target: Atypical kinase COQ8A, mitochondrial (Homo sapiens) (UniProt Q8NI60); conditions: Compound concentration 1000.0 nM
[31] = molecular target: Tyrosine-protein kinase Lck (Homo sapiens) (UniProt P06239); conditions: Compound concentration 1000.0 nM
[32] = molecular target: Cyclin-dependent kinase-like 3 (Homo sapiens) (UniProt Q8IVW4); conditions: Compound concentration 1000.0 nM
[33] = molecular target: Alpha-1B adrenergic receptor (Homo sapiens) (UniProt P35368); conditions: Compound concentration 10.0 uM
[34] = molecular target: Mitogen-activated protein kinase 7 (Homo sapiens) (UniProt Q13164); conditions: Compound concentration 1000.0 nM
[35] = molecular target: Cyclin-dependent kinase 19 (Homo sapiens) (UniProt Q9BWU1); conditions: Compound concentration 1000.0 nM
[36] = molecular target: Sigma intracellular receptor 2 (Homo sapiens, UniProt Q5BJF2); conditions: Compound concentration 10.0 uM
[37] = molecular target: Serine/threonine-protein kinase tousled-like 1 (Homo sapiens) (UniProt Q9UKI8); conditions: Compound concentration 1000.0 nM
[38] = molecular target: Serine/threonine-protein kinase 33 (Homo sapiens) (UniProt Q9BYT3); conditions: Compound concentration 1000.0 nM
[39] = molecular target: Casein kinase II subunit alpha (Homo sapiens) (UniProt P68400); conditions: Compound concentration 1000.0 nM

Sequence of Tyrosine-protein kinase Fes/Fps (Homo sapiens) (P07332 whole entry): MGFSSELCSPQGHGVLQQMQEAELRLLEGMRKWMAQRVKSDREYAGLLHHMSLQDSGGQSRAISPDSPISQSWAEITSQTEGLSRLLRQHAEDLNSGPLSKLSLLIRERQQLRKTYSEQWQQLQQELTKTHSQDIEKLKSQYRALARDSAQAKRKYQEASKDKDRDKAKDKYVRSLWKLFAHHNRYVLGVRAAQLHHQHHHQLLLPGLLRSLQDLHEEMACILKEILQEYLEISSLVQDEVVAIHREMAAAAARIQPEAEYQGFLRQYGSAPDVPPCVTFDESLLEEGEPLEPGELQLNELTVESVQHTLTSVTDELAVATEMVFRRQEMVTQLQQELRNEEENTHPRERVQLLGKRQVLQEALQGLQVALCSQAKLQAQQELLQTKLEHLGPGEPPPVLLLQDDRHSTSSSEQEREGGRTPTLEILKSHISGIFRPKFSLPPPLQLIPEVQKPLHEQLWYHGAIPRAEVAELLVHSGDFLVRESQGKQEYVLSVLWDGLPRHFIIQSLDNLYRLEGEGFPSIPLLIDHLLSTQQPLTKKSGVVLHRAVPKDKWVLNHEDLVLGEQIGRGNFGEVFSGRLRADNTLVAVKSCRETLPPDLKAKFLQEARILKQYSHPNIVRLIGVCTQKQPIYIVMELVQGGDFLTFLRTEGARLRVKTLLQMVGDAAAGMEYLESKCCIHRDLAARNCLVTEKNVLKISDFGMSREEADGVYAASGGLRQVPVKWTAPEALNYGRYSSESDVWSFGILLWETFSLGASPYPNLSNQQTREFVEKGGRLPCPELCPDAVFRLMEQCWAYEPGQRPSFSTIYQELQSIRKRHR
Sequence of TRAF2 and NCK-interacting protein kinase (Homo sapiens) (Q9UKE5 whole entry, looked up): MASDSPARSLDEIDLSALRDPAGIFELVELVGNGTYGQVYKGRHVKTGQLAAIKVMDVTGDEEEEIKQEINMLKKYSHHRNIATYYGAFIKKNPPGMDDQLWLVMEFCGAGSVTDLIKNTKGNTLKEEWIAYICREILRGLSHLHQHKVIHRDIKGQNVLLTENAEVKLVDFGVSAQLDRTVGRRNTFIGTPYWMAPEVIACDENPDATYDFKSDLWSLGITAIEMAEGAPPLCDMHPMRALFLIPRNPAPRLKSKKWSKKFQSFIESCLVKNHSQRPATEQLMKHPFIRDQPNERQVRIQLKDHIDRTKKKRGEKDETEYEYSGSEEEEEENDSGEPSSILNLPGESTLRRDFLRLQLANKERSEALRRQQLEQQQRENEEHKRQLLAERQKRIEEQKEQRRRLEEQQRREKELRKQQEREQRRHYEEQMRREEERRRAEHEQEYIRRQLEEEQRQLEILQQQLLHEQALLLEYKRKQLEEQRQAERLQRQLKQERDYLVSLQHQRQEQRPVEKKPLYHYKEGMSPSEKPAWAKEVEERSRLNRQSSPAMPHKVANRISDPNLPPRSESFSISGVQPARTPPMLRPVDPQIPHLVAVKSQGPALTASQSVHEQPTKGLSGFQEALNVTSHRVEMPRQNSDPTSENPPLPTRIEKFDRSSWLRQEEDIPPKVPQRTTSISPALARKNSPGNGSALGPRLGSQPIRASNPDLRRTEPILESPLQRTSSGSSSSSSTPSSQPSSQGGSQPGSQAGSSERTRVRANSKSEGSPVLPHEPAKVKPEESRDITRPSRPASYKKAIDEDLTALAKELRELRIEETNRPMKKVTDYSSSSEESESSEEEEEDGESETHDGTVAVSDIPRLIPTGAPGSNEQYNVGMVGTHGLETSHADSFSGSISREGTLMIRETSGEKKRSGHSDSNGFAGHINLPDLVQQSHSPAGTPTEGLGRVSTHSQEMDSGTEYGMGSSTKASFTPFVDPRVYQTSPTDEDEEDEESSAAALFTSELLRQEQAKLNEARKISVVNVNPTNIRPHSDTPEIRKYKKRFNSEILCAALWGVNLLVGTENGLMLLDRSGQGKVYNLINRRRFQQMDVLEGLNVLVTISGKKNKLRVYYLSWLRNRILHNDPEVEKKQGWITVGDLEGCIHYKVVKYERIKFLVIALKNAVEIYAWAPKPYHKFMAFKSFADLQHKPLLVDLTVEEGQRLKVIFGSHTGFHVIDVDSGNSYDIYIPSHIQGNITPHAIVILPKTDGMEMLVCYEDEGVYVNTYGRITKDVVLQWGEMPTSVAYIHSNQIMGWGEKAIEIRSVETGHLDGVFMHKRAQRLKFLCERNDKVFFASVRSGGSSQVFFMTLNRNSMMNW
Sequence of Atypical kinase COQ8A, mitochondrial (Homo sapiens) (Q8NI60 163-647 limits assumed): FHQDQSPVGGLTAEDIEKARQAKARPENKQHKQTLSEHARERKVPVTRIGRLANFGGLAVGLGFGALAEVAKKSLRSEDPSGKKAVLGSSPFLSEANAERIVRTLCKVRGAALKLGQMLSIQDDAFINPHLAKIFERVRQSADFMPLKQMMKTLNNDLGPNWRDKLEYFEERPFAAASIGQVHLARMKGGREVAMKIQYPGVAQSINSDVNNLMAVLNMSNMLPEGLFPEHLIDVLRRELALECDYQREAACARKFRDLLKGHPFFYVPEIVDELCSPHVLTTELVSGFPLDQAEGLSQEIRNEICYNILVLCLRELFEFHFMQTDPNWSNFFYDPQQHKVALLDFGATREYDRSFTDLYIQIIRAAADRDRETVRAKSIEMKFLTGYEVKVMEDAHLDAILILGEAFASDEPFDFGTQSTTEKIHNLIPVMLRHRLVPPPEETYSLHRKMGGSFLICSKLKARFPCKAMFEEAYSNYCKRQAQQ
Sequence of Alpha-1B adrenergic receptor (Homo sapiens) (P35368 whole entry): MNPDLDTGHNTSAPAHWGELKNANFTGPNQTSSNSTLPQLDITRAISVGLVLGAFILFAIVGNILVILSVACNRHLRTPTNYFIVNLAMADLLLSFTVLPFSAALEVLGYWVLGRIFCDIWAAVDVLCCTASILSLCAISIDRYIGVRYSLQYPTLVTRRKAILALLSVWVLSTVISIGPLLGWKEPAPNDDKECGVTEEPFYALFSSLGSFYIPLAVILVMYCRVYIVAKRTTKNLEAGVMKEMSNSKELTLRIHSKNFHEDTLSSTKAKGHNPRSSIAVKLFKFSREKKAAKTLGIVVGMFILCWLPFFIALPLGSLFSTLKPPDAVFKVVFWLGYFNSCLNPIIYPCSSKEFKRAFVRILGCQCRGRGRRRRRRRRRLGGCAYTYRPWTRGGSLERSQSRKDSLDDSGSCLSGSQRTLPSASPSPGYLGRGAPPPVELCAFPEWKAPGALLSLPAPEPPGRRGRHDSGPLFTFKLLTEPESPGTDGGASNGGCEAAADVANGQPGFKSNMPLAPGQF
Sequence of Interferon-induced, double-stranded RNA-activated protein kinase (Homo sapiens) (P19525 whole entry): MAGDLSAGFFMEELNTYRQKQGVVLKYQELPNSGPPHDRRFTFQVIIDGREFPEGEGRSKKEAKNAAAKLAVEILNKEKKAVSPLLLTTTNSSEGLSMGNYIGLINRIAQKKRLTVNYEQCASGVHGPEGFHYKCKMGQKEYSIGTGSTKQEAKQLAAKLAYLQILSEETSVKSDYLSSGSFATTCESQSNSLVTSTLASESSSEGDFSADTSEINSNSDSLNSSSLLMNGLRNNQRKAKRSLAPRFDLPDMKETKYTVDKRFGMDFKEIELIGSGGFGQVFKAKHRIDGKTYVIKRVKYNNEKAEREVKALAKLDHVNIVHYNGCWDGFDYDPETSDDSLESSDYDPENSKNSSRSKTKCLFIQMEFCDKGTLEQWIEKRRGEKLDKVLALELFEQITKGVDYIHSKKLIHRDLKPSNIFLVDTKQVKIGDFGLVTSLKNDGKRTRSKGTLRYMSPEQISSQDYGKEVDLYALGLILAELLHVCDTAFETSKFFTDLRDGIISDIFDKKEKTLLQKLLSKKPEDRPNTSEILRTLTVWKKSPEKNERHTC
Sequence of Ephrin type-A receptor 3 (Homo sapiens) (P29320 whole entry): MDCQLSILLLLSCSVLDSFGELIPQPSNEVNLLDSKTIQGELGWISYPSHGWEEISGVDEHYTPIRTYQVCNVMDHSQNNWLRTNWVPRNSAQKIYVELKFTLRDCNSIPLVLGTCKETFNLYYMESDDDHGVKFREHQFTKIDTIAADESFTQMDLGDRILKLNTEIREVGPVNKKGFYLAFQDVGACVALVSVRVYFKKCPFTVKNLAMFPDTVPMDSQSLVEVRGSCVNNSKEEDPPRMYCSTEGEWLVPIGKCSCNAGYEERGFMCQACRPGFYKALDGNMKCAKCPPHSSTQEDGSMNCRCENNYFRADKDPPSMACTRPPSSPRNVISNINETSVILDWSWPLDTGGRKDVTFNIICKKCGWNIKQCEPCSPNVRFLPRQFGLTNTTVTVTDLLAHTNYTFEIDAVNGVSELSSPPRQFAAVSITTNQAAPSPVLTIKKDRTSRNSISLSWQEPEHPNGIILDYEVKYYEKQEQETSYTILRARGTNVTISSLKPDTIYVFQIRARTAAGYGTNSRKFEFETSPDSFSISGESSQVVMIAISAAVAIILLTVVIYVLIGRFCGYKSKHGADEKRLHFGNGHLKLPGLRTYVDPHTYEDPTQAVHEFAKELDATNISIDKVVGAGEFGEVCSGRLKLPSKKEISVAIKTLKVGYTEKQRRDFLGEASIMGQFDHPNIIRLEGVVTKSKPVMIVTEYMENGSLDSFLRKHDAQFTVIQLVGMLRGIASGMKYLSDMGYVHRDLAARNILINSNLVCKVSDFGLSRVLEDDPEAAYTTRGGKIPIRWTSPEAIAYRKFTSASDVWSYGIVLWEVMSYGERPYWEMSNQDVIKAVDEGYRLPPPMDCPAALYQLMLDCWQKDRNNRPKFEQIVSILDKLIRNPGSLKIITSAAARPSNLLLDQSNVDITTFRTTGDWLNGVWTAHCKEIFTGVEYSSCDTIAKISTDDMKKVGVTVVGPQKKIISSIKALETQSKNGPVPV
Sequence of Sigma intracellular receptor 2 (Q5BJF2 whole entry): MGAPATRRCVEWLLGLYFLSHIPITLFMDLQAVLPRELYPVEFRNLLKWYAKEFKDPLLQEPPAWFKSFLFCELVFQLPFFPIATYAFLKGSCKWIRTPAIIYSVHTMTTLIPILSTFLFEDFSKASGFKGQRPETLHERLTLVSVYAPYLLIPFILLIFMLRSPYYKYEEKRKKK

SMILES | residual activity [1] | residual activity [2] | residual activity [3] | residual activity [4] | inhibition [5] | residual activity [6] | residual activity [7] | residual activity [8] | residual activity [9] | residual activity [10] | residual activity [11] | residual activity [12] | residual activity [13] | residual activity [14] | residual activity [15] | residual activity [16] | residual activity [17] | residual activity [18] | residual activity [19] | residual activity [20] | also measured
O=C(Nc1ccc(Oc2ccc(F)cc2)cc1)N1CCc2ncccc2[C@H]1c1ccc(F)cc1 [BAY-897] | 95% | 100% | 100% | 85% | 32.5% | 90% | 86% | 96% | 100% | 100% | 83% | 95% | 100% | 100% | 77% | 92% | 91% | 100% | 98% | 92% | residual activity [21]: 100%; residual activity [22]: 74%; residual activity [23]: 100%; inhibition [24]: -3.56%; residual activity [25]: 96%; residual activity [26]: 100%; residual activity [27]: 64%; residual activity [28]: 100%; residual activity [29]: 96%; residual activity [30]: 100%; residual activity [31]: 94%; residual activity [32]: 82%; inhibition [33]: 12.2%; residual activity [34]: 96%; residual activity [35]: 79%; inhibition [36]: 80.8%; residual activity [37]: 100%; residual activity [38]: 50%; residual activity [39]: 99%
O=C(Nc1cnc(Oc2ccc(F)cc2)nc1)N1CCc2ncccc2[C@@H]1c1ccc(F)cc1 [BAY-899] | 63% | 96% | 100% | 85% | 10.2% | 93% | 85% | 93% | 100% | 73% | 85% | 93% | 100% | 100% | 33% | 86% | 82% | 100% | 100% | 100% | residual activity [21]: 100%; residual activity [22]: 72%; residual activity [23]: 100%; inhibition [24]: -8.97%; residual activity [25]: 100%; residual activity [26]: 100%; residual activity [27]: 67%; residual activity [28]: 93%; residual activity [29]: 97%; residual activity [30]: 95%; residual activity [31]: 83%; residual activity [32]: 77%; inhibition [33]: -4.4%; residual activity [34]: 96%; residual activity [35]: 75%; inhibition [36]: 53.2%; residual activity [37]: 90%; residual activity [38]: 69%; residual activity [39]: 93%
